Results from patent US11584765B2 (priority 2017, dated 2023).

System: C57BL/6 mice
Assay: animal or person
Assay type: in vivo
Conditions: Mus musculus, sc, 0.5 h, s.c. administration, 30 min, 55° C. water, read-out: ED50 (mg/kg) at 30 min on C57BL/6 mice in Warm-water Tail-flick Test

## C=CCN1CCC(CCc2ccccc2)(COCC)CC1 [Compound 80, 1-allyl-4-(ethoxymethyl)-4-phenethylpiperidine]
  ED50: > 10 mg/kg

## CCOCC1(CCc2ccccc2)CCN(Cc2ccc(NC(=O)CC)cc2)CC1 [Compound 81, N-(4-((4-(ethoxymethyl)-4-phenethylpiperidin-1-yl)methyl)phenyl)pro-pionamide]
  ED50: > 10 mg/kg

## CCCCC(=O)Nc1ccc(CN2CCC(CCc3ccccc3)(COCC)CC2)cc1 [Compound 82, N-(4-((4-(ethoxymethyl)-4-phenethylpiperidin-1-yl)methyl)phenyl)pen-tanamide]
  ED50: > 10 mg/kg

## CCOCC1(CCc2ccccc2)CCN(Cc2ccc(NC(N)=O)cc2)CC1 [Compound 83, 1-(4-((4-(ethoxymethyl)-4-phenethylpiperidin-1-yl)methyl)phenyl)urea]
  ED50: > 10 mg/kg

## CCOCC1(CCc2ccccc2)CCN(Cc2ccc(NC(C)=O)c(F)c2)CC1 [Compound 84, N-(4-((4-(ethoxymethyl)-4-phenethylpiperidin-1-yl)methyl)-2-fluorophenyl)acetamide]
  ED50: > 10 mg/kg

## CCOCC1(CCc2ccccc2)CCN(Cc2ccc(NC(C)=O)cc2F)CC1 [Compound 85, N-(4-((4-(ethoxymethyl)-4-phenethylpiperidin-1-yl)methyl)-3-fluorophenyl)acetamide]
  ED50: > 10 mg/kg

## CCOCC1(CCc2ccccc2)CCN(Cc2ccc(NC(C)=O)s2)CC1.Cl [Compound 86, N-(5-((4-(ethoxymethyl)-4-phenethylpiperidin-1-yl)methyl)thiophen-2-yl)acetamide HCl]
  ED50: > 10 mg/kg

## CCOCC1(CCc2ccccc2)CCN(Cc2cnc(NC(C)=O)s2)CC1 [Compound 87, N-(5-((4-(ethoxymethyl)-4-phenethylpiperidin-1-yl)methyl)thiazol-2-yl)acetamide]
  ED50: > 10 mg/kg

## CCOCC1(CCc2ccccc2)CCN(Cc2ccc(NCC(F)(F)F)cc2)CC1 [Compound 88, 4-((4-(ethoxymethyl)-4-phenethylpiperidin-1-yl)methyl)-N-(2,2,2-trifluoroethyl)aniline]
  ED50: > 10 mg/kg

## CCOCC1(CCc2ccccc2)CCN(Cc2ccc(C(N)=O)cc2)CC1 [Compound 89, 4-((4-(ethoxymethyl)-4-phenethylpiperidin-1-yl)methyl)benzamide]
  ED50: > 10 mg/kg

## CCOCC1(CCc2ccccc2)CCN(Cc2ccc(C(=O)NC)cc2)CC1 [Compound 90, 4-((4-(ethoxymethyl)-4-phenethylpiperidin-1-yl)methyl)-N-methylbenzamide]
  ED50: > 10 mg/kg

## CC(=O)Nc1ccc(CN2CCC(CCc3ccccc3)(C3CCO3)CC2)cc1 (stereo not shown) [Compound 91, N-(4-((4-(oxetan-2-yl)-4-phenethylpiperidin-1-yl)methyl)phenyl)acetamide]
  ED50: < 10 mg/kg

## CCOCC1(CCc2ccccc2)CCN(Cc2ccc(NC(C)=O)cn2)CC1 [Compound 92, N-(6-((4-(ethoxymethyl)-4-phenethylpiperidin-1-yl)methyl)pyridin-3-yl)acetamide]
  ED50: > 10 mg/kg

## CCCOCC1(CCc2ccccc2)CCN(Cc2ccc(NC(C)=O)cc2)CC1 [Compound 93, N-(4-((4-phenethyl-4-(propoxy-methyl)piperidin-1-yl)methyl)phenyl)acetamide]
  ED50: > 10 mg/kg

## CC(=O)Nc1ccc(CN2CCC(CCc3ccccc3)(C3CO3)CC2)cc1 (stereo not shown) [Compound 94, N-(4-((4-(oxiran-2-yl)-4-phenethylpiperidin-1-yl)methyl)phenyl)acetamide]
  ED50: > 10 mg/kg

## CCOCC1(CCc2ccccc2)CCN(Cc2ccc(NC(=O)C(C)C)cc2)CC1 [Compound 95, N-(4-((4-(ethoxymethyl)-4-phenethylpiperidin-1-yl)methyl)phenyl)iso-butyramide]
  ED50: > 10 mg/kg

## CCOCC1(CCc2ccccc2)CCN(Cc2ccc(NC(C)=O)cc2)C1 (stereo not shown) [Compound 96, N-(4-((3-(ethoxymethyl)-3-phenethylpyrrolidin-1-yl)methyl)phenyl)acetamide]
  ED50: < 10 mg/kg

## CCOCC1(CCc2ccccc2)CN(Cc2ccc(NC(C)=O)cc2)C1.Cl [Compound 97, N-(4-((3-(ethoxymethyl)-3-phenethylazetidin-1-yl)methyl)phenyl)acetamide HCl]
  ED50: > 10 mg/kg

## CCOCC1(CCc2ccccc2)CCCN(Cc2ccc(NC(C)=O)cc2)CC1 (stereo not shown) [Compound 98, N-(4-((4-(ethoxymethyl)-4-phenethylazepan-1-yl)methyl)phenyl)acetamide]
  ED50: > 10 mg/kg

## CCOCC1(CCc2ccccc2)CN(CCc2ccc(NC(C)=O)cc2)C1 [Compound 99, N-(4-(2-(3-(ethoxymethyl)-3-phenethylazetidin-1-yl)ethyl)phenyl)acetamide]
  ED50: > 10 mg/kg

## C=CCCC1(COCC)CCN(Cc2ccc(NC(C)=O)cc2)CC1 [Compound 100, N-(4-((4-(but-3-enyl)-4-(ethoxymethyl)piperidin-1-yl)methyl)phenyl)acetamide]
  ED50: > 10 mg/kg

## CCOCC1(CCC2CC2)CCN(Cc2ccc(NC(C)=O)cc2)CC1 [Compound 101, N-(4-((4-(2-cyclopropylethyl)-4-(ethoxymethyl)piperidin-1-yl)methyl)phenyl)acetamide]
  ED50: > 10 mg/kg

## CCOCC1(CCc2cccs2)CCN(Cc2ccc(NC(C)=O)cc2)CC1.Cl [Compound 102, N-(4-((4-(ethoxymethyl)-4-(2-(thiophen-2-yl)ethyl)piperidin-1-yl)methyl)phenyl)acetamide HCl]
  ED50: < 10 mg/kg

## CCOCC1(CCc2nccs2)CCN(Cc2ccc(NC(C)=O)cc2)CC1.Cl [Compound 103, N-(4-((4-(ethoxymethyl)-4-(2-(thiazol-2-yl)ethyl)piperidin-1-yl)methyl)phenyl)acetamide HCl]
  ED50: > 10 mg/kg

## CCOCC1(CCc2ccc(F)cc2)CCN(Cc2ccc(NC(C)=O)cc2)CC1 [Compound 104, N-(4-((4-(ethoxymethyl)-4-(4-fluoro-phenethyl)piperidin-1-yl)methyl)phenyl)acetamide]
  ED50: > 10 mg/kg

## CCOCC1(CCc2ccc(O)cc2)CCN(Cc2ccc(NC(C)=O)cc2)CC1.Cl [Compound 105, N-(4-((4-(ethoxymethyl)-4-(4-hydroxy-phenethyl)piperidin-1-yl)methyl)phenyl)acetamide HCl]
  ED50: > 10 mg/kg

## CCOCC1(CCc2ccc(OC)cc2)CCN(Cc2ccc(NC(C)=O)cc2)CC1.Cl [Compound 106, N-(4-((4-(ethoxymethyl)-4-(4-methoxy-phenethyl)piperidin-1-yl)methyl)phenyl)acetamide HCl]
  ED50: > 10 mg/kg

## CC(=O)Nc1ccc(CN2CCC(CCc3ccccc3)(COC(F)F)CC2)cc1 [Compound 107, N-(4-((4-((difluoro-methoxy)methyl)-4-phenethylpiperidin-1-yl)methyl)phenyl)acetamide]
  ED50: > 10 mg/kg

## CCOCC1(CCc2ccccc2)CCN(Cc2ccc3[nH]c(=O)[nH]c3c2)CC1 [Compound 108, 5-((4-(ethoxymethyl)-4-phenethylpiperidin-1-yl)methyl)-1H-benzo[d]imidazol-2(3H)-one]
  ED50: > 10 mg/kg

## CCOCC1(CCc2ccccc2)CCN(Cc2ccc3c(c2)CC(=O)N3)CC1 [Compound 109, 5-((4-(ethoxymethyl)-4-phenethylpiperidin-1-yl)methyl)indolin-2-one]
  ED50: > 10 mg/kg

## CCOCC1(CCc2ccccc2)CCN(Cc2ccc3[nH]ccc3c2)CC1 [Compound 110, 5-((4-(ethoxymethyl)-4-phenethylpiperidin-1-yl)methyl)-1H-indole]
  ED50: > 10 mg/kg

## CCOCC1(CCc2ccccc2)CCN(Cc2ccc3[nH]c(=O)oc3c2)CC1 [Compound 111, 6-((4-(ethoxymethyl)-4-phenethylpiperidin-1-yl)methyl)benzo[d]oxazol-2(3H)-one]
  ED50: > 10 mg/kg

## CCOCC1(CCc2ccccc2)CCN(Cc2ccc3[nH]cnc3c2)CC1 [Compound 112, 5-((4-(ethoxymethyl)-4-phenethylpiperidin-1-yl)methyl)-1H-benzo[d]imidazole]
  ED50: > 10 mg/kg

## CC(=O)Nc1ccc(CN2CCC(CCc3ccccc3)(COC3CCCC3)CC2)cc1 [Compound 113, N-(4-((4-(cyclopentyloxy-methyl)-4-phenethylpiperidin-1-yl)methyl)phenyl)acetamide]
  ED50: > 10 mg/kg

## CC(=O)Nc1ccc(CN2CCC(CCc3ccccc3)(COc3ccccc3)CC2)cc1 [Compound 114, N-(4-((4-phenethyl-4-(phenoxy-methyl)piperidin-1-yl)methyl)phenyl)acet-amide]
  ED50: > 10 mg/kg

## CCOCC1(CCc2ccccc2)CCN(Cc2ccc(NC(=O)C(F)(F)F)cc2)CC1 [Compound 115, N-(4-((4-(ethoxymethyl)-4-phenethylpiperidin-1-yl)methyl)phenyl)-2,2,2-trifluoroacetamide]
  ED50: > 10 mg/kg

## CCOCC1(CCc2ccccc2)CCN(Cc2ccc(NC(=O)N(C)C)cc2)CC1 [Compound 116, 3-(4-((4-(ethoxymethyl)-4-phenethylpiperidin-1-yl)methyl)phenyl)-1,1-dimethylurea]
  ED50: > 10 mg/kg

## CCOCC1(CCc2ccccc2)CCN(Cc2ccc(NC(=O)NC)cc2)CC1 [Compound 117, 1-(4-((4-(ethoxymethyl)-4-phenethylpiperidin-1-yl)methyl)phenyl)-3-methylurea]
  ED50: > 10 mg/kg

## CC(=O)Nc1ccc(CN2CCC(CCc3ccccc3)(C3OC3C)CC2)cc1 (stereo not shown) [Compound 118, N-(4-((4-(3-methyloxiran-2-yl)-4-phenethylpiperidin-1-yl)methyl)phenyl)acetamide]
  ED50: > 10 mg/kg

## CCNc1ccc(CN2CCC(CCc3ccccc3)(CNC)CC2)cc1 [Compound 119, N-ethyl-4-((4-((methylamino)methyl)-4-phenethylpiperidin-1-yl)methyl)aniline]
  ED50: > 10 mg/kg

## CC(=O)Nc1ccc(CN2CCC(CCc3ccccc3)(C3CCO3)C2)cc1 (stereo not shown) [Compound 120, N-(4-((3-(oxetan-2-yl)-3-phenethylpyrrolidin-1-yl)methyl)phenyl)acetamide]
  ED50: < 10 mg/kg

## CCOCC1(CCc2ccccc2)CCN(CC2CCC(NC(C)=O)CC2)CC1.Cl (stereo not shown) [Compound 121, N-(4-((4-(ethoxymethyl)-4-phenethylpiperidin-1-yl)methyl)cyclo-hexyl)acetamide HCl]
  ED50: > 10 mg/kg

## CCOCC1(OCc2ccccc2)CCN(Cc2ccc(NC(C)=O)cc2)CC1 [Compound 122, N-(4-((4-(benzyloxy)-4-(ethoxymethyl)piperidin-1-yl)methyl)phenyl)acetamide]
  ED50: > 10 mg/kg
